Measurements: the NIST ThermoML archive (doi:10.1021/je100687x)

Assay: xn = mol fraction of the nth substance listed
Conditions: 101 kPa, Liquid; for electrical conductivity: Crison GLP 31+ conductivimeter

CCCCn1cc[n+](C)c1.F[B-](F)(F)F [1-butyl-3-methylimidazolium tetrafluoroborate] + CCO
Conditions | electrical conductivity [S/m] | viscosity [mPa·s]
288.15 K, x2 = 0 | – | 173.5
288.15 K, x2 = 0.0765 | – | 121.4
288.15 K, x2 = 0.199 | – | 69.06
288.15 K, x2 = 0.2894 | – | 45.23
288.15 K, x2 = 0.3918 | – | 28.39
288.15 K, x2 = 0.4976 | – | 18.13
288.15 K, x2 = 0.6001 | – | 12.35
288.15 K, x2 = 0.717 | – | 7.86
288.15 K, x2 = 0.7998 | – | 5.676
288.15 K, x2 = 0.9014 | – | 3.06
298.15 K, x2 = 0 | 0.352 | 99.2
298.15 K, x2 = 0.0368 | 0.393 | –
298.15 K, x2 = 0.0765 | – | 72.49
298.15 K, x2 = 0.1136 | 0.522 | –
298.15 K, x2 = 0.1492 | 0.594 | –
298.15 K, x2 = 0.199 | – | 44.05
298.15 K, x2 = 0.2894 | – | 30.15
298.15 K, x2 = 0.2992 | 0.939 | –
298.15 K, x2 = 0.3918 | – | 19.7
298.15 K, x2 = 0.4162 | 1.268 | –
298.15 K, x2 = 0.4976 | – | 12.97
298.15 K, x2 = 0.5137 | 1.551 | –
298.15 K, x2 = 0.5866 | 1.729 | –
298.15 K, x2 = 0.6001 | – | 9.038
298.15 K, x2 = 0.6426 | 1.826 | –
298.15 K, x2 = 0.6863 | 1.871 | –
298.15 K, x2 = 0.717 | – | 5.25
298.15 K, x2 = 0.7204 | 1.874 | –
298.15 K, x2 = 0.7498 | 1.859 | –
298.15 K, x2 = 0.7947 | 1.745 | –
298.15 K, x2 = 0.7998 | – | 4.286
298.15 K, x2 = 0.8394 | 1.564 | –
298.15 K, x2 = 0.8763 | 1.343 | –
298.15 K, x2 = 0.8835 | 1.297 | –
298.15 K, x2 = 0.8908 | 1.249 | –
298.15 K, x2 = 0.9014 | – | 2.371
298.15 K, x2 = 0.9034 | 1.155 | –
298.15 K, x2 = 0.9134 | 1.077 | –
298.15 K, x2 = 0.9217 | 1.01 | –
298.15 K, x2 = 0.9287 | 0.94 | –
298.15 K, x2 = 0.9347 | 0.874 | –
298.15 K, x2 = 0.9399 | 0.825 | –
298.15 K, x2 = 0.9493 | 0.733 | –
298.15 K, x2 = 0.9564 | 0.658 | –
298.15 K, x2 = 0.9617 | 0.597 | –
298.15 K, x2 = 0.9668 | 0.536 | –
298.15 K, x2 = 0.9755 | 0.423 | –
298.15 K, x2 = 0.9897 | 0.221 | –
298.15 K, x2 = 0.9916 | 0.194 | –
298.15 K, x2 = 0.9934 | 0.162 | –
298.15 K, x2 = 0.9972 | 0.0851 | –
308.15 K, x2 = 0 | – | 61.3
308.15 K, x2 = 0.0765 | – | 46.39
308.15 K, x2 = 0.199 | – | 29.81
308.15 K, x2 = 0.2894 | – | 21.18
308.15 K, x2 = 0.3918 | – | 14.45
308.15 K, x2 = 0.4976 | – | 9.836
308.15 K, x2 = 0.6001 | – | 7.026
308.15 K, x2 = 0.717 | – | 4.056
308.15 K, x2 = 0.7998 | – | 3.363
308.15 K, x2 = 0.9014 | – | 1.947
318.15 K, x2 = 0 | – | 40.4
318.15 K, x2 = 0.0765 | – | 31.43
318.15 K, x2 = 0.199 | – | 21.16
318.15 K, x2 = 0.2894 | – | 15.5
318.15 K, x2 = 0.3918 | – | 11.01
318.15 K, x2 = 0.4976 | – | 7.691
318.15 K, x2 = 0.6001 | – | 5.567
318.15 K, x2 = 0.717 | – | 3.252
318.15 K, x2 = 0.7998 | – | 2.723
318.15 K, x2 = 0.9014 | – | 1.641

CCCCCCn1cc[n+](C)c1.F[B-](F)(F)F [1-hexyl-3-methylimidazolium tetrafluoroborate] + CCO
Conditions | electrical conductivity [S/m] | viscosity [mPa·s]
288.15 K, x2 = 0 | – | 357.5
288.15 K, x2 = 0.1 | – | 207.2
288.15 K, x2 = 0.197 | – | 118.9
288.15 K, x2 = 0.298 | – | 69.02
288.15 K, x2 = 0.3877 | – | 48.92
288.15 K, x2 = 0.4921 | – | 27.71
288.15 K, x2 = 0.6009 | – | 16.92
288.15 K, x2 = 0.7 | – | 9.866
288.15 K, x2 = 0.8002 | – | 5.545
288.15 K, x2 = 0.902 | – | 2.893
298.15 K, x2 = 0 | 0.126 | 190.9
298.15 K, x2 = 0.1 | – | 119.2
298.15 K, x2 = 0.197 | – | 72.6
298.15 K, x2 = 0.2439 | 0.33 | –
298.15 K, x2 = 0.298 | – | 43.77
298.15 K, x2 = 0.3877 | – | 32.06
298.15 K, x2 = 0.3981 | 0.565 | –
298.15 K, x2 = 0.4566 | 0.66 | –
298.15 K, x2 = 0.4921 | – | 18.86
298.15 K, x2 = 0.507 | 0.769 | –
298.15 K, x2 = 0.5491 | 0.877 | –
298.15 K, x2 = 0.5861 | 0.947 | –
298.15 K, x2 = 0.6009 | – | 12.09
298.15 K, x2 = 0.6189 | 1.034 | –
298.15 K, x2 = 0.645 | 1.083 | –
298.15 K, x2 = 0.6708 | 1.129 | –
298.15 K, x2 = 0.6938 | 1.17 | –
298.15 K, x2 = 0.7 | – | 7.513
298.15 K, x2 = 0.7145 | 1.206 | –
298.15 K, x2 = 0.733 | 1.216 | –
298.15 K, x2 = 0.7495 | 1.222 | –
298.15 K, x2 = 0.7648 | 1.244 | –
298.15 K, x2 = 0.7909 | 1.25 | –
298.15 K, x2 = 0.8002 | – | 4.191
298.15 K, x2 = 0.8217 | 1.225 | –
298.15 K, x2 = 0.8454 | 1.19 | –
298.15 K, x2 = 0.8637 | 1.144 | –
298.15 K, x2 = 0.8755 | 1.109 | –
298.15 K, x2 = 0.8857 | 1.07 | –
298.15 K, x2 = 0.8946 | 1.033 | –
298.15 K, x2 = 0.902 | – | 2.284
298.15 K, x2 = 0.9042 | 0.98 | –
298.15 K, x2 = 0.9133 | 0.929 | –
298.15 K, x2 = 0.9214 | 0.879 | –
298.15 K, x2 = 0.9267 | 0.832 | –
298.15 K, x2 = 0.9347 | 0.778 | –
298.15 K, x2 = 0.9437 | 0.702 | –
298.15 K, x2 = 0.9526 | 0.621 | –
298.15 K, x2 = 0.9593 | 0.57 | –
298.15 K, x2 = 0.9686 | 0.473 | –
298.15 K, x2 = 0.9758 | 0.393 | –
298.15 K, x2 = 0.9803 | 0.331 | –
298.15 K, x2 = 0.9858 | 0.262 | –
298.15 K, x2 = 0.9892 | 0.214 | –
298.15 K, x2 = 0.9934 | 0.147 | –
298.15 K, x2 = 0.996 | 0.102 | –
298.15 K, x2 = 0.9979 | 0.0636 | –
308.15 K, x2 = 0 | – | 110.3
308.15 K, x2 = 0.1 | – | 74.2
308.15 K, x2 = 0.197 | – | 46.59
308.15 K, x2 = 0.298 | – | 29.55
308.15 K, x2 = 0.3877 | – | 22.1
308.15 K, x2 = 0.4921 | – | 13.73
308.15 K, x2 = 0.6009 | – | 9.004
308.15 K, x2 = 0.7 | – | 5.487
308.15 K, x2 = 0.8002 | – | 3.278
308.15 K, x2 = 0.902 | – | 1.867
318.15 K, x2 = 0 | – | 68.5
318.15 K, x2 = 0.1 | – | 48.17
318.15 K, x2 = 0.197 | – | 32.05
318.15 K, x2 = 0.298 | – | 21.19
318.15 K, x2 = 0.3877 | – | 16.11
318.15 K, x2 = 0.4921 | – | 10.3
318.15 K, x2 = 0.6009 | – | 6.945
318.15 K, x2 = 0.7 | – | 4.498
318.15 K, x2 = 0.8002 | – | 2.636
318.15 K, x2 = 0.902 | – | 1.506
